From paper PMC4155923 (AIDS (London, England), 2012)
Read-outs that look alike come from different tables or passages of the source.

Tests used:
[1] = tested on: patients expressing HLA risk alleles; conditions: cited from earlier work
sHLA-B*57:01 [2] = molecular target: T1, sHLA-B*57:01 (Homo sapiens, UniProt P01889); test: HLA-B*57:01 fluorescence polarization competition peptide-binding assay; conditions: competition with LF9FITC; for affinity for HLA-B*57:01 (in words): fluorescence polarization, no abacavir
sHLA-B*57:01 [3] = molecular target: T1, sHLA-B*57:01; test: Drug effect on LF9FITC peptide binding to sHLA-B*57:01
HLA-B*57:01 = type: cell-based, human; conditions: abacavir-treated cells
CD8+ T cells = conditions: abacavir hypersensitivity; ref [14]; cited from earlier work
[4] = molecular target: Soluble HLA-B*57:01 (human | human (endogenous in 721.221)); test: fluorescence polarisation

## Cc1onc(-c2c(F)cccc2Cl)c1C(=O)N[C@@H]1C(=O)N2[C@@H]1SC(C)(C)[C@@H]2C(=O)O [flucloxacillin]
[1]; liver injury, HLA-B*57:01, ref [8]
  HLA-associated drug reaction: causes drug-induced liver injury in patients expressing HLA-B*57:01

## STIRLLTSL
sHLA-B*57:01 [2]
  affinity for HLA-B*57:01 (in words): could strongly compete in the HLA-B*57:01 peptide-binding assay (Fig. 4a and b), with logIC50 values consistent with high-affinity binding
sHLA-B*57:01 [2]; presence vs absence of 200 μmol/l abacavir
  effect of abacavir on IC50 / inhibition by competitor peptide: No significant difference in inhibition

## LSSPVTKSF [LF9]
sHLA-B*57:01 [2]
  affinity for HLA-B*57:01 (in words): consistent with high-affinity binding

## Oc1ncnc2[nH]ncc12 [allopurinol]
[1]; severe cutaneous adverse reactions, HLA-B*58:01, ref [7]
  HLA-associated drug reaction: Severe cutaneous adverse reactions associated with class I HLA

## Nc1nc(NC2CC2)c2ncn([C@H]3C=C[C@@H](CO)C3)c2n1 [Abacavir, abacavir]
sHLA-B*57:01 [3]; 200 μmol/l abacavir, in presence of competitor peptide HSL or STIR
  LF9FITC reference binding signal in competition experiment: expected increase in reference LF9FITC peptide binding signal with abacavir
sHLA-B*57:01 [3]; fluorescence polarization at equilibrium
  concentration at which the increase in LF9FITC binding starts: 10 µmol/L
HLA-B*57:01
  covalent drug-peptide adducts in peptide fractions: we have not, as yet, identified covalent drug–peptide adducts in the peptide fractions
[1]; HLA-B*57:01 individuals, ref (1)
  tolerance of abacavir in HLA-B*57:01 individuals: Many HLA-B*57:01 individuals are able to tolerate abacavir and not show hypersensitivity
[1]; drug hypersensitivity, HLA-B*57:01, ref [1]–[3]
  HLA-associated drug reaction: linked to HLA-B*57:01
CD8+ T cells
  requirements of CD8+ T-cell response: CD8^+ T-cell responses require transporter of antigen presentation (TAP)/tapasin expression, antigen processing and specific amino acids in the F pocket of HLA-B*57:01

## NC(=O)N1c2ccccc2C=Cc2ccccc21 [carbamazepine]
[1]; severe cutaneous adverse reactions, HLA-B*15:02 [4], B*15:11 [5], A*31:01 [6], ref [4]–[6]
  HLA-associated drug reaction: Severe cutaneous adverse reactions associated with class I HLA

## LSSPVTKSF [LF9 (…)]
[4]
  log IC50: 2.6
